Assay results: US6686369B1, “α-hydrdroxylic acid derivatives, their production and use” (Abbott GmbH & Co., KG, priority 1996, dated 2004)

Legend:
ETB receptor = biological target: T1, ETB receptor (Cavia porcellus, UniProt H0VTF3); experiment: ETB receptor binding assay ([125I]-RZ3, guinea-pig cerebellar membranes); conditions: 25 pM [125I]-RZ3, 25° C.
T1 construct: Guinea-pig cerebella were homogenized in a Potter-Elvejhem homogenizer; from tissue; host or cells: guinea-pig cerebellum membranes
T1 sequence (H0VTF3 27-415): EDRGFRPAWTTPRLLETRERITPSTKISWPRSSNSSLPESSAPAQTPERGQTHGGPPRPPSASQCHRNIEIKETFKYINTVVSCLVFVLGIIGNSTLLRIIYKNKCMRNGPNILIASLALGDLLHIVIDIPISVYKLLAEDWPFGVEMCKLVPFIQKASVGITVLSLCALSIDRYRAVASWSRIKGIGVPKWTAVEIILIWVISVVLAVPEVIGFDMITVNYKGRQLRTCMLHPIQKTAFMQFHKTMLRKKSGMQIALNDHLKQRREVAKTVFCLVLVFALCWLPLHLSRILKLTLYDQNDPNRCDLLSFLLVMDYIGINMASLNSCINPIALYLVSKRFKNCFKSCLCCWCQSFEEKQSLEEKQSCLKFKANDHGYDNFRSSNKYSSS
Protocol: (§1) For binding studies, cloned human ETA receptor-expressing CHO cells and guinea-pig cerebellar membranes with >60% ETB relative to ETA receptors were employed.
Guinea-pig cerebella were homogenized in a Potter-Elvejhem homogenizer and obtained by differential centrifugation at 1000×g for 10 min and repeated centrifugation of the supernatant at 20,000×g for 10 min.
(§2) For the ETA and ETB receptor binding assays, the membranes were suspended in incubation buffer (50 mM Tris-HCl, pH 7.4 with 5 mM MnCl2, 40 μg/ml bacitracin and 0.2% BSA) at a concentration of 50 μg of protein per assay mixture and incubated at 25° C. with 25 pM [125I [sic]]-ET1 (ETA receptor assay) or 25 pM [125I [sic]]-RZ3 (ETB receptor assay) in the presence and absence of test substance. The nonspecific binding was determined with 10^−7 M ET1. Filtration through GF/B glass fiber filters (Whatman, England) in a Skatron cell collector (Skatron, Lier, Norway) after 30 min separated the free and the bound radioligand, and the filters were washed with ice-cold Tris-HCl buffer, pH 7.4 with 0.2% BSA. The radioactivity collected on the filters was quantified using a Packard 2200 CA liquid scintillation counter.

[1] = biological target: T2, cloned human ETA receptor (Homo sapiens, UniProt P25101); experiment: ETA receptor binding assay ([125I]-ET1, membranes of ETA receptor-expressing CHO cells); conditions: CHO cell membranes, 25 pM [125I]-ET1, 25° C.
T2 construct: expressed in transfected cells; host or cells: CHO cells
T2 sequence (P25101 21-427): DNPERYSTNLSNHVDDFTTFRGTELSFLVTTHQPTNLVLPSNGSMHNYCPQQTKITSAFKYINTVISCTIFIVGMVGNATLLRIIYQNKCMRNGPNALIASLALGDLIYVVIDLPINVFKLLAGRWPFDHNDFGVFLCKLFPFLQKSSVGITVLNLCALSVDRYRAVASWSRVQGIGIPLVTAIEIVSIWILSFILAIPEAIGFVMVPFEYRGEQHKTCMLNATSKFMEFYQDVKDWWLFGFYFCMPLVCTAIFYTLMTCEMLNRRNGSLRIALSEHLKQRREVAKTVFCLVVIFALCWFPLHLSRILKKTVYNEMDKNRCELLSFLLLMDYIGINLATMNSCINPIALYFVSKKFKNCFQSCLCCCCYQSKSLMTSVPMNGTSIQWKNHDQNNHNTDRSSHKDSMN
Protocol: as §1
The ETA receptor-expressing CHO cells were grown in F12 medium with 10% fetal calf serum, 1% glutamine, 100 U/ml penicillin and 0.2% streptomycin (Gibco BRL, Gaithersburg, Md., USA). After 48 h, the cells were washed with PBS and incubated with 0.05% trypsin-containing PBS for 5 min. After neutralization with F12 medium, the cells were collected by centrifugation at 300×g. For cell lysis, the pellet was briefly washed with lysis buffer (5 mM Tris-HCl, pH 7.4 with 10% glycerol) and then incubated at a concentration of 10^7 cells/ml of lysis buffer at 4° C. for 30 min. The membranes were centrifuged at 20,000×g for 10 min, and the pellet was stored in liquid nitrogen.
as §2

COc1cc(C)nc(OC(C(=O)O)C(CO)(c2ccccc2)c2ccccc2)n1 (centres unmarked) [Compound I-20]
Ki (ETB receptor): 445 nM
Ki [1]: 5 nM

CCC(c1ccccc1)(c1ccccc1)C(Oc1nc(OC)cc(OC)n1)C(=O)O (centres unmarked) [Compound I-11]
Ki (ETB receptor): 1400 nM
Ki [1]: 20 nM

CCC(c1ccccc1)(c1ccccc1)C(Oc1nc(C)cc(OC)n1)C(=O)O (centres unmarked) [Compound I-12]
Ki (ETB receptor): 250 nM
Ki [1]: 4 nM

COc1cc(OC)nc(OC(C(=O)O)C(C)(c2ccccc2)c2ccccc2)n1 (centres unmarked) [Compound I-1]
Ki (ETB receptor): 950 nM
Ki [1]: 25 nM

Cc1cc(C)nc(OC(C(=O)O)C(C)(c2ccccc2)c2ccccc2)n1 (racemic) [Compound I-3, 2-(4,6-Dimethyl-2-pyrimidinyloxy)-3,3-diphenylbutyric Acid]
Ki (ETB receptor): 325 nM
Ki [1]: 4 nM

CCC(c1ccccc1)(c1ccccc1)C(Oc1nc(C)cc(C)n1)C(=O)O (centres unmarked) [Compound I-15]
Ki (ETB receptor): 540 nM
Ki [1]: 4 nM

COc1cc(C)nc(OC(C(=O)O)C(C)(c2ccccc2)c2ccccc2)n1 (centres unmarked) [Compound I-2]
Ki (ETB receptor): 290 nM
Ki [1]: 3.5 nM
